Results reported in PubChem BioAssay (NCI).
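Results reflect a 48-hour exposure of cells in 96-well plates to compound at five concentrations. Abbreviation: GI50, concentration required for 50% inhibition of growth. TGI denotes the concentration required for complete inhibition of growth.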

Tests used:
Assay in all cases: DTP human tumour cell line panel, 48 h
[1] = test system: UO-31 renal
[2] = test system: IGROV1 ovarian
[3] = test system: SK-MEL-2 melanoma
[4] = test system: NCI/ADR-RES ovarian
[5] = test system: MOLT-4 leukemia
[6] = test system: SF-268 CNS
[7] = test system: SF-295 CNS
[8] = test system: NCI-H226 lung
[9] = test system: CCRF-CEM leukemia
[10] = test system: SR leukemia
[11] = test system: NCI-H460 lung
[12] = test system: HS 578T breast
[13] = test system: EKVX NSCLC
[14] = test system: HCT-15 colon
[15] = test system: RPMI-8226 leukemia
[16] = test system: DU-145 prostate
[17] = test system: OVCAR-8 ovarian
[18] = test system: UACC-257 melanoma
[19] = test system: HT29 colon
[20] = test system: SK-MEL-28 melanoma
[21] = test system: UACC-62 melanoma
[22] = test system: SK-MEL-5 melanoma
[23] = test system: BT-549 breast
[24] = test system: HCC-2998 colon
[25] = test system: MDA-MB-435
[26] = test system: SN12C renal
[27] = test system: HL-60(TB) leukemia
[28] = test system: NCI-H23 lung
[29] = test system: OVCAR-3 ovarian
[30] = test system: SW-620 colon
[31] = test system: SNB-19 CNS
[32] = test system: HCT-116 colon
[33] = test system: SNB-75 CNS
[34] = test system: SF-539 CNS
[35] = test system: K-562 leukemia
[36] = test system: HOP-62 NSCLC
[37] = test system: NCI-H522 lung
[38] = test system: MDA-MB-468 breast
[39] = test system: MCF7 breast
[40] = test system: A498 renal
[41] = test system: LOX IMVI melanoma
[42] = test system: HOP-92 NSCLC
[43] = test system: OVCAR-5 ovarian
[44] = test system: KM12 colon
[45] = test system: PC-3 prostate
[46] = test system: RXF 393 renal
[47] = test system: COLO 205 colon
[48] = test system: M14 melanoma
[49] = test system: MALME-3M melanoma
[50] = test system: ACHN renal
[51] = test system: 786-0 renal
[52] = test system: MDA-MB-231 breast
[53] = test system: U251 CNS
[54] = test system: T-47D breast
[55] = test system: OVCAR-4 ovarian
[56] = test system: CAKI-1 renal
[57] = test system: TK-10 renal
[58] = test system: SK-OV-3 ovarian

Structure (SMILES): O=C(NN1C(=O)/C(=C/C=C/c2ccc([N+](=O)[O-])o2)SC1=S)c1ccc(Cl)cc1
- GI50 [1]: 671 nM
- TGI [1]: 1970 nM
- GI50 [2]: 596 nM
- TGI [2]: 1390 nM
- GI50 [3]: 219 nM
- TGI [3]: 503 nM
- GI50 [4]: 493 nM
- TGI [4]: 2000 nM
- GI50 [5]: 397 nM
- TGI [5]: 13600 nM
- GI50 [6]: 1530 nM
- TGI [6]: 4110 nM
- GI50 [7]: 1740 nM
- TGI [7]: 3280 nM
- GI50 [8]: 247 nM
- TGI [8]: 601 nM
- GI50 [9]: 316 nM
- TGI [9]: 9260 nM
- GI50 [10]: 45.4 nM
- TGI [10]: > 100000 nM
- GI50 [11]: 252 nM
- TGI [11]: 648 nM
- GI50 [12]: 1350 nM
- TGI [12]: 4550 nM
- GI50 [13]: 285 nM
- TGI [13]: 889 nM
- GI50 [14]: 64.7 nM
- TGI [14]: 208 nM
- GI50 [15]: 318 nM
- TGI [15]: 2180 nM
- GI50 [16]: 614 nM
- TGI [16]: 1550 nM
- GI50 [17]: 245 nM
- TGI [17]: 774 nM
- GI50 [18]: 1480 nM
- TGI [18]: 3220 nM
- GI50 [19]: 221 nM
- TGI [19]: 475 nM
- GI50 [20]: 356 nM
- TGI [20]: 1100 nM
- GI50 [21]: 223 nM
- TGI [21]: 564 nM
- GI50 [22]: 214 nM
- TGI [22]: 500 nM
- GI50 [23]: 225 nM
- TGI [23]: 519 nM
- GI50 [24]: 268 nM
- TGI [24]: 706 nM
- GI50 [25]: 203 nM
- TGI [25]: 446 nM
- GI50 [26]: 172 nM
- TGI [26]: 375 nM
- GI50 [27]: 2060 nM
- TGI [27]: 11300 nM
- GI50 [28]: 202 nM
- TGI [28]: 442 nM
- GI50 [29]: 268 nM
- TGI [29]: 747 nM
- GI50 [30]: 143 nM
- TGI [30]: 310 nM
- GI50 [31]: 1270 nM
- TGI [31]: 2540 nM
- GI50 [32]: 84.8 nM
- TGI [32]: 253 nM
- GI50 [33]: 1200 nM
- TGI [33]: 2820 nM
- GI50 [34]: 202 nM
- TGI [34]: 401 nM
- GI50 [35]: 121 nM
- TGI [35]: 8280 nM
- GI50 [36]: 780 nM
- TGI [36]: 2120 nM
- GI50 [37]: 180 nM
- TGI [37]: 353 nM
- GI50 [38]: 1480 nM
- TGI [38]: 3090 nM
- GI50 [39]: 293 nM
- TGI [39]: 1440 nM
- GI50 [40]: 4200 nM
- TGI [40]: 9700 nM
- GI50 [41]: 219 nM
- TGI [41]: 496 nM
- GI50 [42]: 299 nM
- TGI [42]: 734 nM
- GI50 [43]: 734 nM
- TGI [43]: 2000 nM
- GI50 [44]: 473 nM
- TGI [44]: 1910 nM
- GI50 [45]: 863 nM
- TGI [45]: 3900 nM
- GI50 [46]: 239 nM
- TGI [46]: 837 nM
- GI50 [47]: 212 nM
- TGI [47]: 428 nM
- GI50 [48]: 189 nM
- TGI [48]: 369 nM
- GI50 [49]: 186 nM
- TGI [49]: 347 nM
- GI50 [50]: 288 nM
- TGI [50]: 780 nM
- GI50 [51]: 241 nM
- TGI [51]: 550 nM
- GI50 [52]: 180 nM
- TGI [52]: 341 nM
- GI50 [53]: 306 nM
- TGI [53]: 1120 nM
- GI50 [54]: 1640 nM
- TGI [54]: 3100 nM
- GI50 [55]: 1260 nM
- TGI [55]: 2790 nM
- GI50 [56]: 346 nM
- TGI [56]: 1140 nM
- GI50 [57]: 1470 nM
- TGI [57]: 2920 nM
- GI50 [58]: 1710 nM
- TGI [58]: 3180 nM
